Measured values published in ChEMBL document CHEMBL4334532, “Cytotoxic p-Terphenyls from a Marine-Derived Nocardiopsis Species” (J Nat Prod, 2019).
The source made the active and inactive calls. The rule behind the calls is not given here.

How the values were obtained:
[1] = tested on: HL-60; assay: Cytotoxicity against human HL60 cells measured after 72 hrs by Celltiter-Glo assay; format: functional, cell-based; conditions: HL-60, 72 h
[2] = Cytotoxicity against human SPC-A1 cells overexpressing maspin protein measured after 72 hrs by Celltiter-Glo assay; format: functional, cell-based; conditions: SPCA1, 72 h
[3] = tested on: U-87 MG; assay: Cytotoxicity against human U87 cells measured after 72 hrs by Celltiter-Glo assay; format: functional, cell-based, U-87MG ATCC
[4] = tested on: NCI-N87; assay: Cytotoxicity against human NCI-N87 cells measured after 72 hrs by Celltiter-Glo assay; format: functional, cell-based; conditions: NCI-N87, 72 h
[5] = tested on: A673; assay: Cytotoxicity against human A673 cells measured after 72 hrs by Celltiter-Glo assay; format: functional, cell-based; conditions: A673, 72 h
[6] = tested on: MV4-11; assay: Cytotoxicity against human MV4-11 cells measured after 72 hrs by Celltiter-Glo assay; format: functional, cell-based; conditions: MV4-11, 72 h
[7] = tested on: K562; assay: Cytotoxicity against human K562 cells measured after 72 hrs by Celltiter-Glo assay; format: functional, cell-based; conditions: K562, 72 h
[8] = tested on: A549; assay: Cytotoxicity against human A549 cells measured after 72 hrs by Celltiter-Glo assay; format: functional, cell-based; conditions: A549, 72 h
[9] = tested on: BT-474; assay: Cytotoxicity against human BT474 cells measured after 72 hrs by Celltiter-Glo assay; format: functional, cell-based; conditions: BT-474, 72 h
[10] = tested on: NCI-H1299; assay: Cytotoxicity against human H1299 cells measured after 72 hrs by Celltiter-Glo assay; format: functional, cell-based; conditions: NCI-H1299, 72 h
[11] = tested on: HuCCT-1; assay: Cytotoxicity against human HuCCT1 cells measured after 72 hrs by Celltiter-Glo assay; format: functional, cell-based; conditions: HuCCT-1, 72 h
[12] = tested on: B16-F10; assay: Cytotoxicity against mouse B16/F10 cells measured after 72 hrs by Celltiter-Glo assay; format: functional, cell-based; conditions: B16-F10, 72 h
[13] = tested on: MDA-MB-468; assay: Cytotoxicity against human MDA-MB-468 cells measured after 72 hrs by Celltiter-Glo assay; format: functional, cell-based; conditions: MDA-MB-468, 72 h
[14] = tested on: NCI-H1975; assay: Cytotoxicity against human NCI-H1975 cells harboring EGFR double L858R/T790M mutant measured after 72 hrs by Celltiter-Glo assay; format: functional, cell-based; conditions: NCI-H1975, 72 h
[15] = tested on: A-431; assay: Cytotoxicity against human A431 cells measured after 72 hrs by Celltiter-Glo assay; format: functional, cell-based; conditions: A-431, 72 h
[16] = tested on: U-251; assay: Cytotoxicity against human U251 cells measured after 72 hrs by Celltiter-Glo assay; format: functional, cell-based; conditions: U-251, 72 h
[17] = tested on: HCC1954; assay: Cytotoxicity against human HCC1954 cells measured after 72 hrs by Celltiter-Glo assay; format: functional, cell-based; conditions: HCC1954, 72 h
[18] = tested on: MCF7; assay: Cytotoxicity against human MCF7 cells measured after 72 hrs by Celltiter-Glo assay; format: functional, cell-based; conditions: MCF7, 72 h
[19] = tested on: MKN-45; assay: Cytotoxicity against human MKN45 cells measured after 72 hrs by Celltiter-Glo assay; format: functional, cell-based; conditions: MKN-45, 72 h
[20] = tested on: DU-145; assay: Cytotoxicity against human DU145 cells measured after 72 hrs by Celltiter-Glo assay; format: functional, cell-based; conditions: DU-145, 72 h
[21] = tested on: HCT-116; assay: Cytotoxicity against human HCT116 cells measured after 72 hrs by Celltiter-Glo assay; format: functional, cell-based; conditions: HCT-116, 72 h
[22] = tested on: 143B; assay: Cytotoxicity against human 143B cells measured after 72 hrs by Celltiter-Glo assay; format: functional, cell-based
[23] = tested on: NCI-H2228; assay: Cytotoxicity against human NCI-H2228 cells measured after 72 hrs by Celltiter-Glo assay; format: functional, cell-based; conditions: NCI-H2228, 72 h
[24] = tested on: MDA-MB-231; assay: Cytotoxicity against human MDA-MB-231 cells measured after 72 hrs by Celltiter-Glo assay; format: functional, cell-based; conditions: MDA-MB-231, 72 h
[25] = tested on: KARPAS-299; assay: Cytotoxicity against human KARPAS299 cells measured after 72 hrs by Celltiter-Glo assay; format: functional, cell-based; conditions: KARPAS-299, 72 h
[26] = tested on: Hep 3B2; assay: Cytotoxicity against human Hep3B cells measured after 72 hrs by Celltiter-Glo assay; format: functional, cell-based
[27] = tested on: HeLa; assay: Cytotoxicity against human HeLa cells; format: functional, cell-based
[28] = tested on: L02; assay: Cytotoxicity against human LO2 cells assessed as inhibition of cell growth measured after 72 hrs by MTT assay; format: cell-based; conditions: L02, 72 h
[29] = tested on: A549; assay: Cytotoxicity against human A549 cells assessed as inhibition of cell growth measured after 72 hrs by MTT assay; format: functional, cell-based; conditions: A549, 72 h
[30] = tested on: K562; assay: Cytotoxicity against human K562 cells assessed as inhibition of cell growth measured after 72 hrs by CCK-8 assay; format: functional, cell-based; conditions: K562, 72 h
[31] = tested on: MCF7; assay: Cytotoxicity against human MCF7 cells assessed as inhibition of cell growth measured after 72 hrs by MTT assay; format: functional, cell-based; conditions: MCF7, 72 h
[32] = Cytotoxicity against human P6C cells assessed as inhibition of cell growth measured after 72 hrs by MTT assay; format: functional, cell-based

Compound `COC1=C(c2ccc(OC)cc2)C(=O)C=C(c2ccc(OC)cc2)C1=O` has an IC50 [1] of 0.17 µM, an IC50 [2] of 2 µM and an IC50 [3] greater than 100 µM. For the same compound, the IC50 [4] was 1 µM, the IC50 [5] was 0.76 µM and the IC50 [6] was 0.16 µM. It also gave an IC50 [7] of 4.8 µM, an IC50 [8] of 0.48 µM and an IC50 [9] of 3.6 µM. The IC50 [10] was 0.72 µM, the IC50 [11] was 0.2 µM and the IC50 [12] was 0.76 µM. The IC50 [13] was 1.1 µM, the IC50 [14] was 3.1 µM and the IC50 [15] was greater than 100 µM. For the same compound, the IC50 [16] was 4.7 µM, the IC50 [17] was 0.48 µM and the IC50 [18] was greater than 100 µM. It also gave an IC50 [19] of 0.49 µM, an IC50 [20] of 0.52 µM and an IC50 [21] of 1.9 µM. For the same compound, the IC50 [22] was 5 µM, the IC50 [23] was 0.94 µM and the IC50 [24] was 2 µM. For the same compound, the IC50 [25] was greater than 100 µM, the IC50 [26] was greater than 100 µM and the Activity [27] was “Active”.

Compound `COc1ccc(-c2cc(O)c(-c3ccc(OC)cc3)c(OC)c2OC)cc1` has an IC50 [1] of 5 µM, an IC50 [2] of 9.8 µM and an IC50 [3] greater than 100 µM. For the same compound, the IC50 [4] was greater than 100 µM, the IC50 [5] was 8.9 µM and the IC50 [6] was 0.77 µM. It also gave an IC50 [7] of 8.9 µM, an IC50 [8] of 9.7 µM and an IC50 [9] greater than 100 µM. The IC50 [10] was greater than 100 µM, the IC50 [11] was greater than 100 µM and the IC50 [12] was greater than 100 µM. The IC50 [13] was 0.67 µM, the IC50 [14] was 4.4 µM and the IC50 [15] was greater than 100 µM. The IC50 [16] was greater than 100 µM, the IC50 [17] was 2 µM and the IC50 [18] was 17 µM. The IC50 [19] was 12 µM, the IC50 [20] was 1 µM and the IC50 [21] was greater than 100 µM. The IC50 [22] was 7.7 µM, the IC50 [23] was 5 µM and the IC50 [24] was 2 µM. The IC50 [25] was greater than 100 µM and the IC50 [26] was greater than 100 µM.

With `COc1ccc(-c2c(OC)c(O)c(-c3ccc(OC)cc3)c3sc(CO)nc23)cc1` the IC50 [1] was 0.38 µM, the IC50 [2] was greater than 100 µM and the IC50 [3] was greater than 100 µM. The IC50 [4] was greater than 100 µM, the IC50 [5] was greater than 100 µM and the IC50 [6] was 4 µM. The IC50 [7] was 9 µM, the IC50 [8] was 7.8 µM and the IC50 [9] was 6 µM. It also gave an IC50 [10] greater than 100 µM, an IC50 [11] greater than 100 µM and an IC50 [12] greater than 100 µM. The IC50 [13] was 2.8 µM, the IC50 [14] was greater than 100 µM and the IC50 [15] was 4.6 µM. For the same compound, the IC50 [16] was greater than 100 µM, the IC50 [17] was 0.1 µM and the IC50 [18] was 18 µM. It also gave an IC50 [19] greater than 100 µM, an IC50 [20] greater than 100 µM and an IC50 [21] greater than 100 µM. For the same compound, the IC50 [22] was 5.5 µM, the IC50 [23] was 1.7 µM and the IC50 [24] was greater than 100 µM. It also gave an IC50 [25] greater than 100 µM and an IC50 [26] greater than 100 µM.

In the case of `COc1ccc(-c2c(OC)c(O)c(-c3ccc(OC)cc3)c3scnc23)cc1`, the IC50 [28] is reported as 17 µM, the IC50 [29] is reported as 5.1 µM and the IC50 [30] is reported as 0.77 µM. For the same compound, the IC50 [31] was 6 µM and the IC50 [32] was 9.4 µM.

Compound `COc1ccc(-c2cc(O)c(-c3ccc(OC)cc3)c(OC)c2O)cc1` has an IC50 [28] greater than 40 µM, an IC50 [29] greater than 40 µM and an IC50 [30] greater than 40 µM. It also gave an IC50 [31] of 30 µM and an IC50 [32] greater than 40 µM.

In the case of `COc1cccc2c1C(=O)c1c(O)c3c(c(O)c1C2=O)C[C@@](O)(C(=O)CO)C[C@@H]3O[C@H]1C[C@H](N)[C@H](O)[C@H](C)O1` [DOXORUBICIN], the IC50 [2] is reported as 0.18 µM, the IC50 [3] is reported as 0.11 µM and the IC50 [4] is reported as 0.047 µM. For the same compound, the IC50 [5] was 0.1 µM, the IC50 [6] was 0.16 µM and the IC50 [7] was 0.021 µM. The IC50 [8] was 0.11 µM, the IC50 [9] was 1.9 µM and the IC50 [10] was 0.5 µM. The IC50 [11] was 0.048 µM, the IC50 [12] was 0.016 µM and the IC50 [13] was greater than 100 µM. The IC50 [14] was 0.087 µM, the IC50 [15] was 0.16 µM and the IC50 [16] was 0.17 µM. It also gave an IC50 [17] of 0.045 µM, an IC50 [19] of 0.19 µM and an IC50 [20] of 0.051 µM. It also gave an IC50 [22] of 0.1 µM, an IC50 [23] of 0.097 µM and an IC50 [25] of 0.38 µM. For the same compound, the IC50 [26] was 16 µM, the IC50 [28] was 0.7 µM and the IC50 [29] was 0.58 µM. It also gave an IC50 [30] of 0.33 µM and an IC50 [32] of 0.71 µM.

`COc1ccc(-c2c3c(c(-c4ccc(OC)cc4)c(O)c2OC)SCC(=O)N3)cc1` gave an IC50 [1] greater than 100 µM, an IC50 [2] greater than 100 µM and an IC50 [3] greater than 100 µM. It also gave an IC50 [4] greater than 100 µM, an IC50 [5] greater than 100 µM and an IC50 [6] greater than 100 µM. The IC50 [7] was greater than 100 µM, the IC50 [8] was greater than 100 µM and the IC50 [9] was greater than 100 µM. The IC50 [10] was greater than 100 µM, the IC50 [11] was greater than 100 µM and the IC50 [12] was greater than 100 µM. For the same compound, the IC50 [13] was greater than 100 µM, the IC50 [14] was greater than 100 µM and the IC50 [15] was greater than 100 µM. The IC50 [16] was greater than 100 µM, the IC50 [17] was greater than 100 µM and the IC50 [18] was greater than 100 µM. For the same compound, the IC50 [19] was greater than 100 µM, the IC50 [20] was greater than 100 µM and the IC50 [21] was greater than 100 µM. For the same compound, the IC50 [22] was greater than 100 µM, the IC50 [23] was greater than 100 µM and the IC50 [24] was greater than 100 µM. For the same compound, the IC50 [25] was greater than 100 µM and the IC50 [26] was greater than 100 µM.
